As usually defined, the Kd is the constant that tells how readily two partners part at equilibrium.

Read-outs that look alike come from different tables or passages of the source.

The text below walks through data of paper PMC12951562, “SH2scan: Mapping SH2 Domain-Ligand Binding Selectivity for Inhibitors and Degraders” (Journal of Medicinal Chemistry, 2026).

Experiment in all cases: biochemical
Format in all cases: binding

In one test the target is T1, PIK3R3(SH2dom.C-term.) (Homo sapiens, UniProt Q92569).
T1 construct: SH2dom.C-term. denotes SH2 domain closest to C-terminus of protein; made in house; host or cells: HEK293 (transient transfection, unpurified extract)
The following applies: for remaining activity at 10 µM: read-out: percent of DMSO vehicle control; for Kd: dose-response, read-out: KD.

The next test has as its target T2, LYN (Homo sapiens, UniProt P07948).
T2 construct: the DNA-tagged SH2 domain concentrations used in this study were <0.1 nM; made in house; host or cells: HEK293 (transient transfection, unpurified extract)
The settings on record: read-out: percent of DMSO vehicle control.

For a further test, the target named is T3, LNK (SH2B3) (Homo sapiens, UniProt Q9UQQ2).
T3 construct: the DNA-tagged SH2 domain concentrations used in this study were <0.1 nM; made in house; host or cells: HEK293 (transient transfection, unpurified extract)
The following applies: for remaining activity at 10 µM: read-out: percent of DMSO vehicle control.

For the next test, the target named is T4, CRK (Homo sapiens, UniProt P46108).
T4 construct: the DNA-tagged SH2 domain concentrations used in this study were <0.1 nM; made in house; host or cells: HEK293 (transient transfection; unpurified extract)
The following applies: for remaining activity at 10 µM: primary screen.

The next test has as its target T5, DAPP1 (Homo sapiens, UniProt Q9UN19).
T5 construct: the DNA-tagged SH2 domain concentrations used in this study were <0.1 nM; made in house; host or cells: HEK293 (transient transfection; unpurified extract)
T5 sequence (Q9UN19 35-129 limits assumed): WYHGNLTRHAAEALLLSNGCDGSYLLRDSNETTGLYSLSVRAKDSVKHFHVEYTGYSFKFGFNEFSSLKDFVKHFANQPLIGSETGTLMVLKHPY
The settings on record: read-out: percent of DMSO vehicle control; for remaining activity at 10 µM: primary screen.

A further test deals with T6, CBLC (Homo sapiens, UniProt Q9ULV8).
T6 construct: the DNA-tagged SH2 domain concentrations used in this study were <0.1 nM; made in house; host or cells: HEK293 (transient transfection; unpurified extract)
T6 sequence (Q9ULV8 219-321 limits assumed): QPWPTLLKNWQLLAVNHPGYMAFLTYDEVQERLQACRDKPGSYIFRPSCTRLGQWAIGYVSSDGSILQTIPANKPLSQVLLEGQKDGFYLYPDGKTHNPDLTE
The following applies: for Kd: dose-response, read-out: KD; for remaining activity at 10 µM: primary screen.

The target in a further test is T7, PLCG2(SH2dom.C-term.) (Homo sapiens, UniProt P16885).
T7 construct: SH2dom.C-term. denotes SH2 domain closest to C-terminus of protein; made in house; host or cells: HEK293 (transient transfection, unpurified extract)
T7 sequence (P16885 646-735 limits assumed): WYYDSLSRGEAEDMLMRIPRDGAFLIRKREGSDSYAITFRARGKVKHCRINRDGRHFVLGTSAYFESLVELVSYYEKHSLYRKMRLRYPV
The settings on record: for remaining activity at 10 µM: read-out: percent of DMSO vehicle control.

For a further test, the target named is T8, SHC2 (Homo sapiens, UniProt P98077).
T8 construct: made in house; host or cells: HEK293 (transient transfection), unpurified extract
T8 sequence (P98077 1-582): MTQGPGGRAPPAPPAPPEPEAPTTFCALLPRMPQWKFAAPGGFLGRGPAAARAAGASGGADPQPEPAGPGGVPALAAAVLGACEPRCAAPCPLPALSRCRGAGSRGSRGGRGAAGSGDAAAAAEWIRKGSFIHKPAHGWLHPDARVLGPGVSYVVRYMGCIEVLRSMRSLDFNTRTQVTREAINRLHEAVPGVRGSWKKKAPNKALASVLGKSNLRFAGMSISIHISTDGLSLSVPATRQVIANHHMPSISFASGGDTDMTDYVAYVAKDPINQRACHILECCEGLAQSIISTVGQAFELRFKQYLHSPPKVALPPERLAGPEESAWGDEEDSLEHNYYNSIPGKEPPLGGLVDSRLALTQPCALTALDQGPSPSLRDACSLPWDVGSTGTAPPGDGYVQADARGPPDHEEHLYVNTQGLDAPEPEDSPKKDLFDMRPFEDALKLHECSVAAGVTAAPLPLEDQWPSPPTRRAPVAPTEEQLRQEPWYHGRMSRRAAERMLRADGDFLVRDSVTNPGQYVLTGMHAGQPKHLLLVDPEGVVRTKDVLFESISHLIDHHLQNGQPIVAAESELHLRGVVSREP
The settings on record: read-out: percent of DMSO vehicle control.

The next test concerns the target T9, SOCS2 (Homo sapiens, UniProt O14508).
T9 construct: made in house; host or cells: HEK293 (transient transfection), unpurified extract
T9 sequence (O14508 1-198): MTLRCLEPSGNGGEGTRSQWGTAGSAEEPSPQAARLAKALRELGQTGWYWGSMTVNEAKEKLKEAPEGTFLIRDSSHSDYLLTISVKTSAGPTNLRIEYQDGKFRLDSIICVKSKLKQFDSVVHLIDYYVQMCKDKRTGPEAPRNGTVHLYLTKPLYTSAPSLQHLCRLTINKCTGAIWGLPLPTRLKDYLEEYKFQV
The settings on record: for remaining activity at 10 µM: read-out: percent of DMSO vehicle control; for Kd: dose-response, read-out: KD.

The target in a further test is T10, GRB7 (Homo sapiens, UniProt Q14451).
T10 construct: the DNA-tagged SH2 domain concentrations used in this study were <0.1 nM; made in house; host or cells: HEK293 (transient transfection; unpurified extract)
The settings on record: read-out: percent of DMSO vehicle control; for remaining activity at 10 µM: primary screen.

The next test has as its target T11, FRK (Homo sapiens, UniProt P42685).
T11 construct: the DNA-tagged SH2 domain concentrations used in this study were <0.1 nM; made in house; host or cells: HEK293 (transient transfection; unpurified extract)
The following applies: read-out: percent of DMSO vehicle control; for remaining activity at 10 µM: primary screen.

Another test deals with T12, PLCG1(SH2dom.C-term.) (Homo sapiens, UniProt P19174).
T12 construct: SH2dom.C-term. denotes SH2 domain closest to C-terminus of protein; made in house; host or cells: HEK293 (transient transfection, unpurified extract)
T12 sequence (P19174 668-756 limits assumed): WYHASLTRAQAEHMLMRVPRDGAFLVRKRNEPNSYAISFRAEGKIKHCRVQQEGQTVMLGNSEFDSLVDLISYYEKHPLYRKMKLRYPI
The settings on record: for remaining activity at 10 µM: read-out: percent of DMSO vehicle control; for Kd: dose-response, read-out: KD.

The target in a further test is T13, SH3BP2 (Homo sapiens, UniProt P78314).
T13 construct: made in house; host or cells: HEK293 (transient transfection), unpurified extract
T13 sequence (P78314 1-561): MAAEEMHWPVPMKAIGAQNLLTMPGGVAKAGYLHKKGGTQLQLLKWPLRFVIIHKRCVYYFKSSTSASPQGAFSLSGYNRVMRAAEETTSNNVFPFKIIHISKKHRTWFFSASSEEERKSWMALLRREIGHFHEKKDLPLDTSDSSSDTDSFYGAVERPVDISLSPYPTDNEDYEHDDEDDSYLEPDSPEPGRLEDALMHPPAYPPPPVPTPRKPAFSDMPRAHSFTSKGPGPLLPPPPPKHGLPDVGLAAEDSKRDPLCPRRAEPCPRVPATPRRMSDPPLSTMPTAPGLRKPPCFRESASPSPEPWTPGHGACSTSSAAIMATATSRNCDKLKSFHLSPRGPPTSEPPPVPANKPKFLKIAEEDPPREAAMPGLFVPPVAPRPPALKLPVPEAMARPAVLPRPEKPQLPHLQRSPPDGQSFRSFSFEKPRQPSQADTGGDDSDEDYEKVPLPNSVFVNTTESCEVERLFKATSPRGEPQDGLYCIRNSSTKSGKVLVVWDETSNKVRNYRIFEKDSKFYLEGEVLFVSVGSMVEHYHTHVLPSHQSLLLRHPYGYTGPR
The following applies: read-out: percent of DMSO vehicle control.

The target of the next test is T14, NCK1 (Homo sapiens, UniProt P16333).
T14 construct: the DNA-tagged SH2 domain concentrations used in this study were <0.1 nM; made in house; host or cells: HEK293 (transient transfection, unpurified extract)
The settings on record: for remaining activity at 10 µM: read-out: percent of DMSO vehicle control.

Setting [1] is: read-out: percent of DMSO vehicle control.

T11 sequence (P42685 116-208 limits assumed): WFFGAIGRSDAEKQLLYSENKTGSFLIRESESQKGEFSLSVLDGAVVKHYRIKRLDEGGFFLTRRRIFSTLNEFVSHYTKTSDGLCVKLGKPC
T10 sequence (Q14451 431-527 limits assumed): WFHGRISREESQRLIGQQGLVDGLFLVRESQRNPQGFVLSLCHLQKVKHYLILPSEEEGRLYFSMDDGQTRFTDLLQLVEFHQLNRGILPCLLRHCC
T4 sequence (P46108 13-118 limits assumed): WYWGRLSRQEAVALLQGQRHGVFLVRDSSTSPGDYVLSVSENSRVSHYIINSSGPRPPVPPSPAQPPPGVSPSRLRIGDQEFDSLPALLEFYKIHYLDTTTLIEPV
T2 sequence (P07948 129-226 limits assumed): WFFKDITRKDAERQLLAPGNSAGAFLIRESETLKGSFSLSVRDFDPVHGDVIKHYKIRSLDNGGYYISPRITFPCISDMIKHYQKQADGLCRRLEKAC
T3 sequence (Q9UQQ2 364-462 limits assumed): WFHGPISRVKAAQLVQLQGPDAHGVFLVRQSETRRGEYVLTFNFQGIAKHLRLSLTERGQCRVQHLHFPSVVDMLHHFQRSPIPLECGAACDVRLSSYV

With `CC(=O)N1CC[C@H]2CC[C@@H](C(=O)N[C@@H](CCC(N)=O)C(=O)NC(c3ccccc3)c3ccccc3)N2C(=O)[C@@H](NC(=O)c2cc3cc(C(F)(F)P(=O)(O)O)ccc3[nH]2)C1` [SI-109], the remaining activity at 10 µM on PIK3R3(SH2dom.C-term.) came to 137%; at LYN it was 140%; at LNK (SH2B3), 81.4 ± 6.7%; at PLCG2(SH2dom.C-term.), 98.7 ± 6.9%; at SHC2, 131%; on SOCS2 it was 142%. Also, the remaining activity at 10 µM on PLCG1(SH2dom.C-term.) was found to be 98 ± 1.4%; on SH3BP2, 131%; on NCK1 it was 124%. Besides, the percent of DMSO vehicle control at 10 µM on CRK (setting [1]) is 119%; on DAPP1, 149%; on CBLC (setting [1]), 106%; on GRB7, 135%; at FRK it was 151%.

Consider `C/C(=C\C(=O)N[C@H](C(=O)N1CCC[C@H]1C(=O)N(c1ccccc1)c1ccc(I)cc1)C(C)(C)C)c1ccc(OP(=O)(O)O)cc1` [STAT6-IN-1], for which the dissociation constant (Kd) at PIK3R3(SH2dom.C-term.) was 780 ± 42 nM; on LNK (SH2B3) (dose-response, read-out: KD) it was 2300 ± 140 nM; at CRK (dose-response, read-out: KD) it was 2004 ± 5.9 nM; on CBLC it was 1800 ± 490 nM; on PLCG2(SH2dom.C-term.) (dose-response, read-out: KD), 3800 ± 500 nM; on SOCS2 it was 1500 ± 870 nM. Further, on PLCG1(SH2dom.C-term.), the Kd worked out at 2050 ± 210 nM. Further, the remaining activity at 10 µM at PIK3R3(SH2dom.C-term.) (primary screen, 10 μM) came to 1 ± 0.1%; at LYN (primary screen, 10 μM), 73.6 ± 54%; on LNK (SH2B3) (primary screen, 10 μM), 6.9 ± 3.8%; on CRK (setting [1]), 34.5 ± 1.8%; on DAPP1, 41.1 ± 13.9%; on CBLC (setting [1]) it was 3.3 ± 0.1%. Moreover, the remaining activity at 10 µM came to 7.5 ± 0.6% on PLCG2(SH2dom.C-term.) (primary screen, 10 μM); 47.3 ± 3.3% at SHC2 (primary screen, 10 μM); 0% on SOCS2 (primary screen, 10 μM); 47.7 ± 4.2% on GRB7; 38.3 ± 5.9% at FRK; 1.5 ± 2.1% on PLCG1(SH2dom.C-term.) (primary screen, 10 μM). The remaining activity at 10 µM on SH3BP2 (primary screen, 10 μM) was 56.5 ± 0.3%; on NCK1 (primary screen, 10 μM) it was 10.6 ± 2.6%. Also, the KD entry at NCK1 (dose-response) is “No Hit”.

As for `CC(C)(C)[C@H](NC(=O)/C=C/c1ccc(OP(=O)(O)O)cc1)C(=O)N1CCC[C@H]1C(=O)N(c1ccccc1)c1ccc(I)cc1` [STAT6-IN-3], the Kd at PIK3R3(SH2dom.C-term.) is 1020 ± 260 nM; at CBLC it was 2800 ± 520 nM; on SOCS2, 1010 ± 13 nM; at PLCG1(SH2dom.C-term.), 3800 ± 280 nM. Besides, the remaining activity at 10 µM on PIK3R3(SH2dom.C-term.) (primary screen, 10 μM) was 26.9 ± 10.2%; at LYN (primary screen, 10 μM), 82.3 ± 17.1%; on LNK (SH2B3) (primary screen, 10 μM) it was 62 ± 5.7%; at CRK (setting [1]), 80.4 ± 9.5%; at DAPP1, 58.9 ± 43.2%; on CBLC (setting [1]) it was 34.7 ± 1.3%. Moreover, the remaining activity at 10 µM was 75.3 ± 10% on PLCG2(SH2dom.C-term.) (primary screen, 10 μM); 85.2 ± 11.3% at SHC2 (primary screen, 10 μM); 7.9 ± 50.6% on SOCS2 (primary screen, 10 μM); 81.2 ± 4.6% at GRB7; 59.9 ± 42.5% at FRK; 24.7 ± 7% at PLCG1(SH2dom.C-term.) (primary screen, 10 μM). Besides, the remaining activity at 10 µM on SH3BP2 (primary screen, 10 μM) came out at 92.8 ± 2.7%; at NCK1 (primary screen, 10 μM), 85.1 ± 10.2%.

Take `O=C(COc1ccc2cc(C(=O)Nc3ccccc3)ccc2c1)NCc1ccc(OP(=O)(O)O)c(OP(=O)(O)O)c1` [Stafib-1]: the remaining activity at 10 µM at PIK3R3(SH2dom.C-term.) (primary screen, 10 μM) stood at 86.5%; on LYN (primary screen, 10 μM), 95.6 ± 22.4%; on LNK (SH2B3) (primary screen, 10 μM), 94.8 ± 14.4%; at CRK (setting [1]), 90.2 ± 5.9%; at DAPP1, 100%; on CBLC (setting [1]), 100%. The remaining activity at 10 µM worked out at 80.4 ± 8.2% on PLCG2(SH2dom.C-term.) (primary screen, 10 μM); 83.4 ± 24.4% at SHC2 (primary screen, 10 μM); 47.9 ± 29% at SOCS2 (primary screen, 10 μM); 57.9 ± 22.2% on GRB7; 65.3 ± 42.8% at FRK; 78.8 ± 17.8% on PLCG1(SH2dom.C-term.) (primary screen, 10 μM). Also, the remaining activity at 10 µM is 86 ± 3.2% on SH3BP2 (primary screen, 10 μM) and 53.7 ± 39.3% at NCK1 (primary screen, 10 μM).
